# Patent US5817641A, “Treatment of enterotoxigenic diarrhea with 2-substituted adenosine derivatives” (priority 1997, dated 1998)
# Key:
# [1] = target: T1, guanylyl cyclase C (GC-C) (Rattus norvegicus, UniProt P23897); assay: biochemical; type: biochemical; conditions: for guanylyl cyclase activation by peptide: 10 μM peptide, presence or absence of 1 mM ATP; for maximum inhibition of guanylyl cyclase: with or without ST; for inhibition at 1000 µM: read-out: decrease of Vmax of guanylyl cyclase
# T1 construct: The mucosal layer was scraped from the intestine and homogenized; from tissue; host or cells: small intestinal mucosa of Sprague-Dawley rats (100,000×g washed membrane pellet)
# T1 sequence (P23897 23-1072): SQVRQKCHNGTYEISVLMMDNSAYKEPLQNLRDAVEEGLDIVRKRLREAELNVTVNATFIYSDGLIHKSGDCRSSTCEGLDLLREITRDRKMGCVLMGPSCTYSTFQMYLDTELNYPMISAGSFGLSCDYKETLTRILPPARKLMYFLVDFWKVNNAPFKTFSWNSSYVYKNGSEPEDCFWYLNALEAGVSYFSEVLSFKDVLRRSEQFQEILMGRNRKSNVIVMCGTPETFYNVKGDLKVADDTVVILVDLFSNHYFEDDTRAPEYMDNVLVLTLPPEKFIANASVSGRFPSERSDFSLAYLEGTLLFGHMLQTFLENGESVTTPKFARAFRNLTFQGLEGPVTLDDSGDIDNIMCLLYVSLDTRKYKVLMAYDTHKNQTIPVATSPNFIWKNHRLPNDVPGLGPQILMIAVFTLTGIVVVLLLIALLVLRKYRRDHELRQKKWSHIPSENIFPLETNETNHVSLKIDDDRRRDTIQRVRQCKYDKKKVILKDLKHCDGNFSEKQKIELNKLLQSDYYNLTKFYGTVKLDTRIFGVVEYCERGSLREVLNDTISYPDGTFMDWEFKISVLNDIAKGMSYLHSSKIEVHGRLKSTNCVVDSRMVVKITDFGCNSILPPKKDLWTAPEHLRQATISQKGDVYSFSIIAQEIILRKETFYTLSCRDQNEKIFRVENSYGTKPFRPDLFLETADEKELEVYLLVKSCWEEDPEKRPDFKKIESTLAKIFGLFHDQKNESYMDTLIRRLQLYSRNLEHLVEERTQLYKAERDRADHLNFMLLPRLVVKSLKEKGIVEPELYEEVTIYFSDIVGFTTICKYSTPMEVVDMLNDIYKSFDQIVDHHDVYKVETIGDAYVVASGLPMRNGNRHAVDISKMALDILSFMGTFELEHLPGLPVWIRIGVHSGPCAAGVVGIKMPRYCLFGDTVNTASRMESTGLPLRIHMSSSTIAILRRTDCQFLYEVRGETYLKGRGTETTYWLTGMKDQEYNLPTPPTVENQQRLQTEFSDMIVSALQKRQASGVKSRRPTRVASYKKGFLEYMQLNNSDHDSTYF
# Method: (§1) Membranes were prepared from rat intestinal mucosa cells as described previously (Gazzano et al., (1991) Infect. Immun., 59, 1552-1557, which is incorporated herein by reference). Briefly, Sprague-Dawley rats were sacrificed, small intestine removed and rinsed in ice-cold 0.9% NaCl. All procedures were conducted at 4° C. The mucosal layer was scraped from the intestine and homogenized in 50 mM Tris-HCl (pH 7.6) containing 1 mM dithiothreitol, 1 mM EDTA and 1 mM phenylmethylsulfonyl fluoride, (TED) supplemented with 0.25M sucrose (TEDS). Homogenates were centrifuged at 100,000×g for 60 minutes and the resulting pellet was sequentially washed in (i) TED supplemented with 0.5M KCl, (ii) TED:TEDS (1:1) and (iii) TED. The final pellet was homogenized in TED at a protein concentration of 5-10 mg/mL and aliquots were stored at -70° C.
# Guanylyl cyclase activity was assayed as described previously (Waldman et al., (1984) J. Infect. Dis., 149, 83-89, which is incorporated herein by reference). Membranes were incubated at 37° C. in a final volume of 100 μl in the presence of 50 mM Tris-HCl (pH 7.6) containing 10 mM theophylline, 7.5 mM creatine phosphate/[…] creatine phosphokinase (160 U/mg of protein), GTP, manganese or magnesium cofactor (2 mM in excess of nucleotide) and ST and/or adenine nucleotide where indicated. Reactions were initiated by addition of membrane, incubated 5 minutes and terminated by adding 400 μl of 50 mM sodium acetate (pH 4.0) and boiling for 5 minutes. Following acetylation, samples were diluted with 50 mM NaAc containing 20 mM CaCl2. Generated cGMP was quantified by radioimmunoassay as described previously (Waldman et al., (1984) J. Infect. Dis., 149, 83-89). Radioimmunoassays were performed in triplicate, enzyme reactions were performed in duplicate, and results are representative of at least 3 experiments. Enzyme activity was linear with respect to protein concentration and time for all experiments.
# Protein concentration was measured by the method of Bradford (Bio-Rad) using bovine serum albumin as standard (Bradford, M. M., (1976) Anal. Biochem., 72, 248-254). All assays were performed in duplicate and data are representative of at least 3 experiments. Values reported for the S0.5 and Vmax are equivalent to the concentration of substrate yielding half-maximum guanylyl cyclase activity and the maximum velocity of the enzyme activity, respectively. All nucleotides were obtained from Sigma, except 2-chloroadenosine 5'-triphosphate (2ClATP) which were from Research Biochemicals Incorporated (Natick, Mass.).
# P2y purinergic receptors = conditions: cited from earlier work
# [2] = system: GC-C in membranes from T84 and Caco 2 cells; assay: Guanylyl cyclase activity in membranes prepared from T84 and Caco 2 cells; type: biochemical
# Text: Guanylyl cyclase C undergoes post-translations processing yielding multiple ST-binding proteins detected in crosslinking studies utilizing ^125 I-ST or by Western blot analysis (Vaandrager et al., (1993) J. Biol. Chem., 268, 2174-2179; Vaandrager et al., (1993) J. Biol. Chem., 268, 19598-19603; Ivens et al., (1990) Infect. Immun., 58, 1817-1820; de Sauvage et al., (1993) J. Biol. Chem., 267, 6479-6482; Cohen et al., (1993) J. Cell. Physiol., 156, 138-144). Post-translational processing of GC-C appears to reflect heterogenicity of glycosylation and proteolysis. Processing has been observed in membranes examined from intestinal mucosal cells, intestinal cells grown in vitro, and mammalian cells expressing cloned rat or human GC-C. Thus, the shift in apparent cooperativity with associated changes in Hill coefficients induced by 2-substituted adenine nucleotides could reflect differences in their effects on different populations of GC-C in intestinal membranes. Guanylyl cyclase C is the predominant, […], member of the particulate guanylyl cyclase family expressed by T84 and Caco 2 cells in vitro (Vaandrager et al., (1992) Gastroenterology, 102, 1161-1169). […]
# ST receptor (GC-C) = assay: ST receptor binding assay ([125I]-ST) in rat intestinal membranes; conditions: 1 mM nucleotide, presence or absence of GTP and magnesium
# Method: as §1, with “Homogenates were centrifuged at 100,000×g for 60 minutes and the resulting pellet was sequentially washed in (i) TED supplemented with 0.5M KCl, (ii) TED:TEDS (1:1) and (iii) TED. The final pellet was homogenized in TED at a protein concentration of 5-10 mg/mL and aliquots were stored at -70° C.” left out
# ST binding was quantified as described previously (Hugues et al., (1991) Biochemistry, 30, 10738-10745, which is incorporated herein by reference). […] Parallel incubations contained excess (10^-6 M) unlabeled ST to quantify non-specific binding. Reaction mixtures were incubated for 40 minutes at 37° C. and bound [^125 I]-ST was separated from free ligand by vacuum filtration through Whatman (GF/B glass fiber filters pretreated with 0.3% polyethyleneimine. Filters were washed with 10 ml of 20 mM phosphate-buffered saline (pH 7.2) containing 1 mM EDTA. Radioactivity which remained on the filter was quantified in a Packard γ-counter. Specific binding was determined by subtracting non-specific binding from the total [^125 I]-ST bound in the absence of unlabeled ligand. Non-specific binding was routinely less than 20% of total binding.
# [3] = magnesium cofactor, basal and ST (1 μM)-activated
# [4] = manganese cofactor (1.6 without nucleotide)
compound,measurement,setting,value
"ANP: atrial natriuretic peptides, ligand of GC-A [reference compound]",guanylyl cyclase activation by peptide,[1],did not exhibit guanylyl cyclase activation
Nc1nc(Cl)nc2c1ncn2[C@@H]1O[C@H](CO)[C@@H](O)[C@H]1O [2ClAdo],effect on guanylyl cyclase activity,[1]; manganese cofactor,did not significantly inhibit guanylyl cyclase
"CNP: C-type natriuretic peptide, ligand of GC-B [reference compound]",guanylyl cyclase activation by peptide,[1],did not exhibit guanylyl cyclase activation
"Nc1ncnc2c1ncn2[C@@H]1O[C@H](COP(=O)(O)CP(=O)(O)OP(=O)(O)O)[C@@H](O)[C@H]1O [AMPCPP, α,β-methylene adenosine 5'-triphosphate, reference compound]",ligand potency for P2y receptors,P2y purinergic receptors,poor ligand for P2y receptors
CSc1nc(N)c2ncn([C@@H]3O[C@H](COP(=O)(O)OP(=O)(O)OP(=O)(O)O)[C@@H](O)[C@H]3O)c2n1 [2MeSATP],Ki,"[1]; Ki for inhibition of guanylyl cyclase, 20 μM GTP",390 ± 260 µM
same,Ki,"[1]; Ki for inhibition of guanylyl cyclase, 1000 μM GTP",280 ± 180 µM
same,Ki values in the presence or absence of ST,[1]; magnesium cofactor,not significantly different
same,Hill coefficient of guanylyl cyclase in the presence of nucleotide,"[1]; magnesium cofactor, 1 mM nucleotide, presence and absence of ST",about 1.0
same,effect on guanylyl cyclase activity,[1]; [3],inhibited guanylyl cyclase activity
same,maximum inhibition of guanylyl cyclase,[1]; magnesium cofactor,> 95%
same,effect on Vmax and S0.5,"[1]; magnesium cofactor, nucleotide 1 mM, presence or absence of ST",lowered the Vmax without significantly changing the S0.5
same,effect on guanylyl cyclase activity,[1]; manganese cofactor,inhibited guanylyl cyclase in a concentration-dependent fashion
same,guanylyl cyclase activity inhibited,[1]; manganese cofactor,> 95%
same,Hill coefficient of guanylyl cyclase in the presence of nucleotide,[1]; [4],0.7
same,effect on S0.5,"[1]; manganese cofactor, 1 mM nucleotide",only a small effect on the S0.5
same,inhibition at 1000 µM,[1],> 90%
same,effect on cooperativity of GC-C,[2],shift from positive to negative cooperativity
same,inhibition of GC-C,[2],potently inhibited GC-C
"Nc1nc(Cl)nc2c1ncn2[C@@H]1O[C@H](COP(=O)(O)OP(=O)(O)OP(=O)(O)O)[C@@H](O)[C@H]1O [2ClATP, 2-chloroadenosine 5'-triphosphate]",Ki,[1]; Ki (concentration yielding half-maximum inhibition),300 µM
same,guanylyl cyclase activity inhibited,[1]; in the presence of maximally activating concentrations of AMPS,> 95%
same,Ki values in the presence or absence of ST,[1]; magnesium cofactor,not significantly different
same,effect on guanylyl cyclase activity,[1]; [3],inhibited guanylyl cyclase activity
same,maximum inhibition of guanylyl cyclase,[1]; magnesium cofactor,> 95%
same,effect on guanylyl cyclase activity,[1]; manganese cofactor,inhibited guanylyl cyclase in a concentration-dependent fashion
same,guanylyl cyclase activity inhibited,[1]; manganese cofactor,> 95%
same,Ki when AMPS is incorporated in enzyme incubations,[1]; with maximally activating AMPS (3 mM),unchanged
same,specific binding of [125I]-ST to intestinal membranes,ST receptor (GC-C),unchanged
"Nc1ncnc2c1ncn2[C@@H]1O[C@H](COP(O)(O)=S)[C@@H](O)[C@H]1O [AMPS, adenosine 5'-O-thiomonophosphate, reference compound]",effect on guanylyl cyclase activity,[1]; [3],potentiated guanylyl cyclase activation by ST in a concentration-dependent fashion
same,effect on guanylyl cyclase activity,[1]; manganese cofactor,did not significantly inhibit guanylyl cyclase
same,Ka to potentiate ST-activation of guanylyl cyclase when 2ClATP is incorporated,[1]; with 2ClATP at 0.3 mM,unchanged
"Nc1ncnc2c1ncn2[C@@H]1O[C@H](CO[P@](=O)(O)O[P@](=O)(O)O[P@@](=O)(O)S)[C@@H](O)[C@H]1O [ATPγS, adenosine 5'-O-(3-thiotriphosphate), reference compound]",maximal activation of guanylyl cyclase,"[1]; magnesium cofactor, in the presence of ST (1 μM)",2- to 3 fold
same,effect on guanylyl cyclase activity,[1]; manganese cofactor,inhibited guanylyl cyclase in a concentration-dependent fashion
"Nc1ncnc2c1ncn2[C@@H]1O[C@H](COP(=O)(O)OP(=O)(O)OP(=O)(O)O)[C@@H](O)[C@H]1O [ATP, reference compound]",effect on guanylyl cyclase activity,[1]; [3],activated guanylyl cyclase in a concentration-dependent manner but with a lower efficacy than ATPγS
same,effect on guanylyl cyclase activity,[1]; manganese cofactor,inhibited guanylyl cyclase in a concentration-dependent fashion
same,Hill coefficient of guanylyl cyclase in the presence of nucleotide,[1]; [4],less than 1.0
same,S0.5 of guanylyl cyclase in the presence of nucleotide,"[1]; manganese cofactor, 1 mM nucleotide (0.08 mM without)",0.25 mM
same,concentration at which the nucleotide inhibits guanylyl cyclase activity (biphasic dose-response),[1]; rat intestinal membranes,above 1 mM
same,inhibition at 1000 µM,[1],80%
"Nc1ncnc2c1ncn2[C@@H]1O[C@H](COP(=O)(O)OP(O)(O)=S)[C@@H](O)[C@H]1O [ADPβS, adenosine 5'-O-(2-thiodiphosphate), reference compound]",ligand potency for P2y receptors,P2y purinergic receptors,potent ligand for P2y receptors
